Marks after values point to notes of the source that are not given here.
Columns and labels:
[1] = Dynamic light scattering: LNP particle size and PDI; format: physicochemical; conditions: for PDI N/P:6 / Size (nm) N/P:6: LNP
Method: (§1) Lipids and active ingredients (e.g., RNA, DNA, etc.) were assembled into LNPs using microfluidic mixing. An ethanol phase was prepared by solubilizing ionizable lipids (i.e., lipid compounds), phospholipids (e.g., DSPC), cholesterol, and PEG lipids in ethanol, at predetermined mol % ratios given in Table 2. An aqueous phase was prepared by diluting a nucleic acid cargo (e.g., firefly luciferase mRNA) in an acidified buffer (pH 4.0 citrate buffer, 50 mM). A chip with microfluidic mixing architecture (e.g., toroidal mixer) was used to mix the two phases at predetermined flow rate ratios (e.g., 9 ml/min for the aqueous phase and 3 ml/min for the ethanol phase). Resulting LNPs comprising the lipids and encapsulating the nucleic acid cargo were dialyzed against PBS pH 7.4 for 2 hours at room temperature in a 20 kDa MWCO dialysis membrane. Then, PBS was refreshed to continue dialysis overnight at 2-8 TC. Upon completion of the buffer exchange, LNPs were optionally concentrated using a ultracentrifugal unit with a 10-100 kDa MWCO membrane.
d. Dynamic Light Scattering
LNPs were diluted with PBS pH 7.4 to predetermined dilution ranges based on the process step and LNP concentration. Following mixing, the particle size and PDI were measured by a dynamic light scattering instrument.

[2] = Plate-based fluorescence (RiboGreen) assay: nucleic acid cargo content and encapsulation efficiency of LNPs; format: physicochemical; conditions: for EE (%) N/P:6: LNP
Method: as §1
c. Plate-Based Fluorescence (RiboGreen) Assay
Nucleic acid cargos in the LNPs were quantified by RiboGreen assay, against a nucleic acid standard curve. LNPs encapsulating nucleic acid cargo were mixed with 1× Tris-EDTA (TE) and 2% triton in TE, separately, to achieve dilutions required by the assay. Then, the samples were heated at 30° C. and vortexed at 300 rpm. Samples were plated into 96-well plates and RiboGreen reagent was added into each well. Following incubation in the dark, fluorescence was measured from the wells, and plotted against the standard curve. Nucleic acid concentration obtained from the Triton-treated samples were used for total cargo concentration quantification. Only TE diluted sample fluorescence values were used to determine the non-encapsulated (free) cargo, and their ratio was used to determine the encapsulation efficiency (EE %).

mouse organs = test: In vivo activity screening in mice: organ mean total flux (p/s) of luciferase activity after injection of F2 LNP pools (Table 6, FIG. 7A-7C); conditions: luciferase mRNA
Summary of the method: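 C57BL/6J mice given one tail-vein injection of pooled Formulation F2 LNPs carrying firefly luciferase mRNA (0.25-3 mg/kg) in PBS. At 4-6 h, s.c. D-luciferin given; organs imaged ex vivo by IVIS within 10-15 min, after saline cardiac perfusion. Mean total flux (p/s) per organ ROI.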

[3] = LNP compositions for Formulation F2 Study
[4] = LNP compositions for in vivo mouse study, four formulations (F1-F4) of the lipid compound pooled, or pools of four compounds (sixteen compositions)
[5] = LNP compositions for in vivo mouse study, four formulations (F1-F4) pooled, or pools of four compounds

## CCCCC/C=C\CCOC(=O)CCCCC(=O)OCC(COC(=O)CCCCC(=O)OCC/C=C\CCCCC)(COC(=O)CCC(CCCCCC)OC(=O)NCCN1CCCC1)COC(=O)CC12CC3CC(CC(C3)C1)C2 (stereo not drawn) [Compound 14, O6-[2-[[2-(1-adamantyl)acetyl]oxymethyl]-2-[[6-[(Z)-non-3-enoxy]-6-oxo-hexanoyl]oxymethyl]-3-[4-(2-pyrrolidin-1-ylethylcarbamoyloxy)decanoyloxy]propyl]O1-[(Z)-non-3-enyl]hexanedioate]
[1]; [3]
  PDI: 0.178
  Particle Size (nm): 107.6 nm
[1]; [4]
  Particle Size (nm): 82.9 nm
[1]; [5]
  PDI: 0.106
[1]; Formulation F1, N/P 6
  PDI N/P:6: 0.06
  Size (nm) N/P:6: 78 ± 2 nm
[1]; Formulation F2, N/P 6
  PDI N/P:6: 0.07
  Size (nm) N/P:6: 90 ± 5 nm
[1]; Formulation F3, N/P 6
  PDI N/P:6: 0.14
  Size (nm) N/P:6: 83 ± 1 nm
[1]; Formulation F4, N/P 6
  PDI N/P:6: 0.09
  Size (nm) N/P:6: 68 ± 3 nm
[2]; [3]
  EE %: 99%
[2]; [5]
  EE %: 96%
  mRNA Content: 93 µg/mL
[2]; Formulation F1, N/P 6
  EE (%) N/P:6: 99%
[2]; Formulation F2, N/P 6
  EE (%) N/P:6: 99%
[2]; Formulation F3, N/P 6
  EE (%) N/P:6: 99%
[2]; Formulation F4, N/P 6
  EE (%) N/P:6: 98%
Mouse organs; Mouse 1, dose 0.3 mg/kg
  Organ Mean Total Flux Femur: 9.3 p/s (×10^6)
  Organ Mean Total Flux Heart: 1.8 p/s (×10^6)
  Organ Mean Total Flux Kidney: 2.8 p/s (×10^6)
  Organ Mean Total Flux Liver: 3910 p/s (×10^6)
  Organ Mean Total Flux Lung: 31.9 p/s (×10^6)
  Organ Mean Total Flux Muscle: 9.5 p/s (×10^6)
  Organ Mean Total Flux Pancreas: 14.9 p/s (×10^6)
  Organ Mean Total Flux Spleen: 31.5 p/s (×10^6)
Mouse organs; Mouse 2, dose 1.0 mg/kg
  Organ Mean Total Flux Femur: 62.6 p/s (×10^6)
  Organ Mean Total Flux Heart: 5.9 p/s (×10^6)
  Organ Mean Total Flux Kidney: 7.0 p/s (×10^6)
  Organ Mean Total Flux Liver: 2883 p/s (×10^6)
  Organ Mean Total Flux Lung: 96.9 p/s (×10^6)
  Organ Mean Total Flux Muscle: 144.9 p/s (×10^6)
  Organ Mean Total Flux Pancreas: 32.1 p/s (×10^6)
  Organ Mean Total Flux Spleen: 107.0 p/s (×10^6)
Mouse organs; Mouse 3, dose 1.0 mg/kg
  Organ Mean Total Flux Femur: 41.8 p/s (×10^6)
  Organ Mean Total Flux Heart: 8.6 p/s (×10^6)
  Organ Mean Total Flux Kidney: 7.7 p/s (×10^6)
  Organ Mean Total Flux Liver: 4307 p/s (×10^6)
  Organ Mean Total Flux Lung: 49.2 p/s (×10^6)
  Organ Mean Total Flux Muscle: 193.7 p/s (×10^6)
  Organ Mean Total Flux Pancreas: 23.4 p/s (×10^6)
  Organ Mean Total Flux Spleen: 123.8 p/s (×10^6)
Mouse organs; Mouse 5, dose 0.5 mg/kg
  Organ Mean Total Flux Femur: 11.9 p/s (×10^6)
  Organ Mean Total Flux Heart: 4.4 p/s (×10^6)
  Organ Mean Total Flux Kidney: 1.8 p/s (×10^6)
  Organ Mean Total Flux Liver: 1303 p/s (×10^6)
  Organ Mean Total Flux Lung: 18.9 p/s (×10^6)
  Organ Mean Total Flux Muscle: 34.1 p/s (×10^6)
  Organ Mean Total Flux Pancreas: 1.9 p/s (×10^6)
  Organ Mean Total Flux Spleen: 20.8 p/s (×10^6)
Mouse organs; Mouse 6, dose 0.5 mg/kg
  Organ Mean Total Flux Femur: 9.1 p/s (×10^6)
  Organ Mean Total Flux Heart: 1.6 p/s (×10^6)
  Organ Mean Total Flux Kidney: 3.2 p/s (×10^6)
  Organ Mean Total Flux Liver: 676.3 p/s (×10^6)
  Organ Mean Total Flux Lung: 17.3 p/s (×10^6)
  Organ Mean Total Flux Muscle: 27.6 p/s (×10^6)
  Organ Mean Total Flux Pancreas: 14.7 p/s (×10^6)
  Organ Mean Total Flux Spleen: 28.7 p/s (×10^6)
Mouse organs; Mouse 9, dose 0.5 mg/kg
  Organ Mean Total Flux Femur: 13.3 p/s (×10^6)
  Organ Mean Total Flux Heart: 1.2 p/s (×10^6)
  Organ Mean Total Flux Kidney: 2.5 p/s (×10^6)
  Organ Mean Total Flux Liver: 721.0 p/s (×10^6)
  Organ Mean Total Flux Lung: 10.4 p/s (×10^6)
  Organ Mean Total Flux Muscle: 31.2 p/s (×10^6)
  Organ Mean Total Flux Pancreas: 10.2 p/s (×10^6)
  Organ Mean Total Flux Spleen: 32.2 p/s (×10^6)
Mouse organs; Mouse 11, dose 0.5 mg/kg
  Organ Mean Total Flux Femur: 10.1 p/s (×10^6)
  Organ Mean Total Flux Heart: 1.8 p/s (×10^6)
  Organ Mean Total Flux Kidney: 0.9 p/s (×10^6)
  Organ Mean Total Flux Liver: 360.7 p/s (×10^6)
  Organ Mean Total Flux Lung: 25.4 p/s (×10^6)
  Organ Mean Total Flux Muscle: 24.2 p/s (×10^6)
  Organ Mean Total Flux Pancreas: 4.2 p/s (×10^6)
  Organ Mean Total Flux Spleen: 26.2 p/s (×10^6)
Mouse organs; Mouse 12, dose 0.5 mg/kg
  Organ Mean Total Flux Femur: 9.3 p/s (×10^6)
  Organ Mean Total Flux Heart: 1.8 p/s (×10^6)
  Organ Mean Total Flux Kidney: 2.2 p/s (×10^6)
  Organ Mean Total Flux Liver: 585.3 p/s (×10^6)
  Organ Mean Total Flux Lung: 32.4 p/s (×10^6)
  Organ Mean Total Flux Muscle: 35.5 p/s (×10^6)
  Organ Mean Total Flux Pancreas: 3.5 p/s (×10^6)
  Organ Mean Total Flux Spleen: 21.1 p/s (×10^6)
Mouse organs; Mouse 13, dose 0.5 mg/kg
  Organ Mean Total Flux Femur: 8.3 p/s (×10^6)
  Organ Mean Total Flux Heart: 1.1 p/s (×10^6)
  Organ Mean Total Flux Kidney: 5.7 p/s (×10^6)
  Organ Mean Total Flux Liver: 439.7 p/s (×10^6)
  Organ Mean Total Flux Lung: 16.8 p/s (×10^6)
  Organ Mean Total Flux Muscle: 16.7 p/s (×10^6)
  Organ Mean Total Flux Pancreas: 5.3 p/s (×10^6)
  Organ Mean Total Flux Spleen: 19.7 p/s (×10^6)
Mouse organs; Mouse 14, dose 0.5 mg/kg
  Organ Mean Total Flux Femur: 10.8 p/s (×10^6)
  Organ Mean Total Flux Heart: 2.0 p/s (×10^6)
  Organ Mean Total Flux Kidney: 4.6 p/s (×10^6)
  Organ Mean Total Flux Liver: 240.7 p/s (×10^6)
  Organ Mean Total Flux Lung: 12.6 p/s (×10^6)
  Organ Mean Total Flux Muscle: 41.1 p/s (×10^6)
  Organ Mean Total Flux Pancreas: 7.6 p/s (×10^6)
  Organ Mean Total Flux Spleen: 24.0 p/s (×10^6)

## CCCCC/C=C\CCOC(=O)CCCCCCC(=O)OCC(COC(=O)CCCCCCC(=O)OCC/C=C\CCCCC)(COC(=O)CCC(CCCCCC)OC(=O)NCCN1CCCC1)COC(=O)CCC(OCCCCCCCC)OCCCCCCCC (stereo not drawn) [Compound 12, O8-[2-(4,4-dioctoxybutanoyloxymethyl)-2-[[8-[(Z)-non-3-enoxy]-8-oxo-octanoyl]oxymethyl]-3-[4-(2-pyrrolidin-1-ylethylcarbamoyloxy)decanoyloxy]propyl]O1-[(Z)-non-3-enyl]octanedioate]
[1]; [4]
  Particle Size (nm): 83.7 nm
[1]; [5]
  PDI: 0.119
[1]; Formulation F1, N/P 6
  PDI N/P:6: 0.16
  Size (nm) N/P:6: 81 ± 9 nm
[1]; Formulation F2, N/P 6
  PDI N/P:6: 0.07
  Size (nm) N/P:6: 84 ± 5 nm
[1]; Formulation F3, N/P 6
  PDI N/P:6: 0.04
  Size (nm) N/P:6: 93 ± 1 nm
[1]; Formulation F4, N/P 6
  PDI N/P:6: 0.09
  Size (nm) N/P:6: 63 ± 0 nm
[2]; [5]
  EE %: 97%
  mRNA Content: 91 µg/mL
[2]; Formulation F1, N/P 6
  EE (%) N/P:6: 98%
[2]; Formulation F2, N/P 6
  EE (%) N/P:6: 98%
[2]; Formulation F3, N/P 6
  EE (%) N/P:6: 97%
[2]; Formulation F4, N/P 6
  EE (%) N/P:6: 98%
Mouse organs; Mouse 1, dose 0.3 mg/kg
  Organ Mean Total Flux Femur: 1.3 p/s (×10^6)
  Organ Mean Total Flux Heart: 0.1 p/s (×10^6)
  Organ Mean Total Flux Kidney: 0.2 p/s (×10^6)
  Organ Mean Total Flux Liver: 61.8 p/s (×10^6)
  Organ Mean Total Flux Lung: 0.7 p/s (×10^6)
  Organ Mean Total Flux Muscle: 2.7 p/s (×10^6)
  Organ Mean Total Flux Pancreas: 0.2 p/s (×10^6)
  Organ Mean Total Flux Spleen: 0.7 p/s (×10^6)
